Measurements as given in publication PMC8069832, “New Amides and Phosphoramidates Containing Selenium: Studies on Their Cytotoxicity and Antioxidant Activities in Breast Cancer” (Antioxidants, 2021).
Read-outs that look alike come from different tables or passages of the source.

Assays:
BEAS-2B = assay: MTT cytotoxicity in nonmalignant bronchial epithelium cells; type: cell-based; details: for GI50 / IC (TGI): Homo sapiens, BEAS-2B, 48 h; for GI50: read-out: GI50 BEAS-2B; for IC (TGI): read-out: TGI BEAS-2B; for Selectivity index (SI) = GI50 (BEAS-2B)/GI50 (HTB-54): lung
How it was run: (§1)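 184B5 cells grown in supplemented DMEM/F12, BEAS-2B in RPMI with 10% FBS. 1 × 10^4 cells/well exposed to increasing compound concentrations for 48 h at 37 °C, 5% CO2, then MTT 4 h and formazan dissolved in DMSO. At least 3 independent experiments in quadruplicate; cisplatin as reference.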

[1] = as above; type: cell-based; details: human
How it was run: as §1

HTB-54 = assay: cells; type: cell-based; details: Homo sapiens; for GI50: read-out: GI50 HTB54; for CC50: read-out: LC50 HTB54; for IC (TGI): read-out: TGI HTB54
How it was run: (§2)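 MTT cytotoxicity: 1 × 10^4 cells/well in RPMI + 10% FBS exposed to increasing compound concentrations for 48 h at 37 °C, 5% CO2, then MTT for 4 h and formazan dissolved in DMSO. Initial screen at 50 and 10 µM; at least 3 independent experiments in quadruplicate, SEM reported.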

PC-3 = assay: cells; type: cell-based; details: Homo sapiens; for GI50: read-out: GI50 PC-3; for LC50: read-out: LC50 PC-3; for IC (TGI): read-out: TGI PC-3
How it was run: as §2

CCRF-CEM = assay: cells; details: Homo sapiens, 48 h; for activity at 10 µM: read-out: Cell growth (%) CCRF-CEM; for GI50: read-out: GI50 CCRF-CEM; for CC50: read-out: LC50 CCRF-CEM; for IC (TGI): read-out: TGI CCRF-CEM
MCF-7 [2] = assay: Cell cycle phase distribution by flow cytometry; type: cell-based, human; details: 24 h, different doses
Protocol: For the MCF-7 cell line, both cell cycle analysis and the cell death percentage were determined using the Apo-Direct kit (BD Pharmingen) based on the TUNEL technique, according to the manufacturer’s instructions. Cells were seeded in 25 cm^2 flasks (3 × 10^6 for 24 h of treatment, 2 × 10^6 for 48 h and 10^6 for 72 h) treated with DMSO (negative control), 6 µM of camptothecin (positive control) and different concentrations of I.1f, I.2f and II.2d.
After treatment, cells were collected and fixed with 1% paraformaldehyde (Sigma) in PBS (pH = 7.4), incubated in ice for 40 min, collected by centrifugation, washed with PBS and incubated with 70% ethanol for 30 min at −20 °C. After fixation, cells were washed twice with PBS and incubated for 1 h at 37 °C with FITC dUTP-DNA Labeling Solution. Cells were then rinsed and incubated in the dark for 30 min at room temperature with PI/RNase staining buffer before being analyzed by flow cytometry (Coulter Epics XL, Beckman Coulter Flow cytometer). Then, cells were treated with compounds I.1f (80 µM), I.2f (30 µM) and II.2d (5 µM) at different times (from 8 to 72 h) following the same methodology.
Apoptosis and cell cycle arrest are typical mechanisms of action for many anticancer drugs, including selenocompounds [34, 35, 36]. In a first approach, the effect of the selected compounds on cell cycle progression and the induction of apoptosis was studied in MCF-7 cell cultures. Analyses were performed by flow cytometry using the Apo-Direct kit, based on the TUNEL technique under the conditions described by the manufacturer. The cells were treated with the corresponding compound at different concentrations and time points. Camptothecin was used as a positive control at 6 µM.
To further understand the mechanism of action of these potent compounds, their effects on cell cycle distribution in MCF-7 were studied by flow cytometry. This assay was carried out with different concentrations (Figure 6) and different time points (Figure 7).

HT-29 = assay: cells; details: Homo sapiens, HT-29, 48 h; for activity at 10 µM: read-out: Cell growth (%) HT-29; for GI50: read-out: GI50 HT-29; for CC50: read-out: LC50 HT-29; for IC (TGI): read-out: TGI HT-29
MCF-7 [3] = assay: Western blot of autophagy and apoptosis markers; type: cell-based, human; details: for Beclin-1 and LC3B levels / Phosphorylation of AMPK and JNK / SQSTM1/p62 (autophagic flux): I.1f 80 µM 48 h, I.2f 30 µM 24 h
[4] = nonmalignant cells, 48 h, read-out: LC50 BEAS-2B

Structure (SMILES)	Selectivity index (SI) = GI50 (BEAS-2B)/GI50 (HTB-54) (BEAS-2B)	CC50 (HTB-54; HTB-54, 48 h)	LC50 (PC-3; PC-3, 48 h)	activity at 10 µM (CCRF-CEM)	GI50 (CCRF-CEM)	CC50 (CCRF-CEM)	IC (TGI) (CCRF-CEM)	Cell cycle phase distribution (MCF-7 [2])	activity at 10 µM (HT-29)	GI50 (HT-29)	CC50 (HT-29)	IC (TGI) (HT-29)	GI50 (BEAS-2B; nonmalignant cells)	IC (TGI) (BEAS-2B; nonmalignant cells)	GI50 (HTB-54; HTB-54, 48 h, average ± SEM)	IC (TGI) (HTB-54; HTB-54, 48 h, average ± SEM)	GI50 (PC-3; PC-3, 48 h, average ± SEM)	IC (TGI) (PC-3; PC-3, 48 h, average ± SEM)	Beclin-1 and LC3B levels (MCF-7 [3])	Phosphorylation of AMPK and JNK (MCF-7 [3])	further results
CCOP(=O)(Nc1ccc([Se]C#N)cc1)OCC [II.2d]	2.85	4.8 ± 0.2 µM	99.9 ± 9.5 µM	-87.4%	0.2 µM	0.9 ± 0.1 µM	0.5 µM	arrested them in G0/G1 phase	-63.4%	5 ± 0.8 µM	9.5 ± 0.4 µM	7.3 ± 0.2 µM	–	–	–	–	–	–	–	–	GI50 (BEAS-2B): 4.65 µM; IC (TGI) (BEAS-2B): 6.59 µM; LC50 (50% lethal concentration) at 48 h [1, 4]: 8.3 µM; GI50 (HTB-54; HTB-54, 48 h): 1.6 ± 0.4 µM; IC (TGI) (HTB-54; HTB-54, 48 h): 3.2 ± 0.3 µM; GI50 (PC-3; PC-3, 48 h): 1.9 ± 0.1 µM; IC (TGI) (PC-3; PC-3, 48 h): 4.4 ± 0.1 µM; BAX, p21, p53 levels (MCF-7 [3]): Significantly increased levels; Bcl-2 levels (MCF-7 [3]): decreased levels
N#C[Se]c1ccc(NC(=O)c2ccc(C(F)(F)F)cc2)cc1 [I.2f]	0.70	–	–	54.6%	7.3 ± 0.5 µM	> 100 µM	> 100 µM	increased the number of cells in the S phase dose-dependently	26.7%	0.6 ± 0.4 µM	> 100 µM	79.2 ± 0.3 µM	20.8 µM	47 µM	29.8 ± 1.5 µM	57.1 ± 3.3 µM	28.5 ± 0.7 µM	53.1 ± 0.6 µM	increased levels	induced JNK and AMPK phosphorylation	LC50 (50% lethal concentration) [1, 4]: 73.2 µM; CC50 (HTB-54; HTB-54, 48 h, average ± SEM): 84.4 ± 5.2 µM; LC50 (PC-3; PC-3, 48 h, average ± SEM): 77.7 ± 0.6 µM; SQSTM1/p62 (autophagic flux) (MCF-7 [3]): downregulated
O=C(Nc1ccc([Se][Se]c2ccc(NC(=O)c3ccc(C(F)(F)F)cc3)cc2)cc1)c1ccc(C(F)(F)F)cc1 [I.1f]	0.42	75.4 ± 1.7 µM	65 ± 0.6 µM	36.5%	4.7 ± 0.7 µM	79.2 ± 4.1 µM	31.7 ± 1.8 µM	increased the number of cells in the S phase dose-dependently	-18.4%	0.1 µM	> 100 µM	5.7 ± 0.9 µM	10.7 µM	41.8 µM	25.1 ± 3.1 µM	50.2 ± 2.4 µM	1.2 ± 1.5 µM	32.9 ± 3.1 µM	increased levels	induced JNK and AMPK phosphorylation	LC50 (50% lethal concentration) at 48 h [1]: 72.9 µM; SQSTM1/p62 (autophagic flux) (MCF-7 [3]): downregulated
